The record followed here is US20150299188A1, “HETEROCYCLIC COMPOUND” (priority 2012, published 2015).

The test system of the test is FLAP (5-lipoxygenase activating protein). Nature of the test: In vitro binding test: displacement of [3H]-7-chloro-3-(5-((3-fluoropyridin-2-yl)methoxy)-2-methylphenyl)-3,4-dihydroquinazolin-2(1H)-one from Sf9 microsome fractions. As to conditions: Sf9 microsome fractions expressing FLAP; 100% = radioligand binding with 10 μM sodium 3-(3-(tert-butylsulfanyl)-1-(4-chlorobenzyl)-5-isopropyl-1H-indol-2-yl)-2,2-dimethylpropanoate, 0% = DMSO; test compound concentration not given. Details: species or system human and mouse. The method, boiled down:
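Sf9 microsomes expressing human or mouse FLAP (2 μg/mL) preincubated with compound 10 min at room temperature, then 120 nM tritiated quinazolinone ligand added for 60 min; buffer 100 mM Tris-HCl pH 7.5 with NaCl, EDTA, DTT, glycerol, Tween20. Bound ligand filtered and counted by scintillation; 10 μM indole propanoate defines 100% inhibition, DMSO 0%.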
On the technique in general: Displacement assays read how much labelled ligand stays bound in the presence of the test substance.
With `Cc1cnn(-c2cc3c(c(C4CC4)n2)CN(c2cc4c(cc2C)CCC(c2ncccc2F)O4)C(=O)N3)c1` (stereo not shown) [Example 133, 5-cyclopropyl-3-(2-(3-fluoropyridin-2-yl)-6-methyl-3,4-dihydro-2H-chromen-7-yl)-7-(4-methyl-1H-pyrazol-1-yl)-3,4-dihydropyrido[4,3-d]pyrimidin-2(1H)-one], the “inhibitory rate (%)” value was 100%.
To `O=C1Nc2cc(-c3nsc(=O)[nH]3)nc(C3CC3)c2CN1c1cc2c(cc1Cl)CCC(c1ncccc1F)O2` (stereo not shown) [Example 134, 3-(6-chloro-2-(3-fluoropyridin-2-yl)-3,4-dihydro-2H-chromen-7-yl)-5-cyclopropyl-7-(5-oxo-4,5-dihydro-1,2,4-thiadiazol-3-yl)-3,4-dihydropyrido[4,3-d]pyrimidin-2(1H)-one] belongs 91%.
For `Cc1cc2c(cc1N1Cc3c(cc(-n4cc(C(N)=O)cn4)nc3C3CC3)NC1=O)OC(c1ncccc1F)CC2` (stereo not shown) [Example 135, 1-(5-cyclopropyl-3-(2-(3-fluoropyridin-2-yl)-6-methyl-3,4-dihydro-2H-chromen-7-yl)-2-oxo-1,2,3,4-tetrahydropyrido[4,3-d]pyrimidin-7-yl)-1H-pyrazole-4-carboxamide], the “inhibitory rate (%)” value is 104%.
As to `O=C1Nc2cc(-c3ncon3)nc(C3CC3)c2CN1c1cc2c(cc1Cl)CCC(c1ncccc1F)O2` (stereo not shown) [Example 136, 3-(6-chloro-2-(3-fluoropyridin-2-yl)-3,4-dihydro-2H-chromen-7-yl)-5-cyclopropyl-7-(1,2,4-oxadiazol-3-yl)-3,4-dihydropyrido[4,3-d]pyrimidin-2(1H)-one], the “inhibitory rate (%)” value amounted to 111%.
Turning to `O=C(c1cc2c(c(C3CC3)n1)CN(c1cc3c(cc1Cl)CCC(c1ncccc1F)O3)C(=O)N2)N1CC2(COC2)C1` (stereo not shown) [Example 137, 3-(6-chloro-2-(3-fluoropyridin-2-yl)-3,4-dihydro-2H-chromen-7-yl)-5-cyclopropyl-7-(2-oxa-6-azaspiro[3.3]hept-6-ylcarbonyl)-3,4-dihydropyrido[4,3-d]pyrimidin-2(1H)-one], the “inhibitory rate (%)” value amounted to 104%.
As for `Cc1cc2c(cc1N1Cc3c(cc(N4CCOC4=O)nc3C3CC3)NC1=O)OC(c1ncccc1F)CC2` (stereo not shown) [Example 138, 5-cyclopropyl-3-(2-(3-fluoropyridin-2-yl)-6-methyl-3,4-dihydro-2H-chromen-7-yl)-7-(2-oxo-1,3-oxazolidin-3-yl)-3,4-dihydropyrido[4,3-d]pyrimidin-2(1H)-one], the “inhibitory rate (%)” value is reported as 109%.
As for `O=C(c1cc2c(c(C3CC3)n1)CN(c1cc3c(cc1Cl)CCC(c1ncccc1F)O3)C(=O)N2)N1CC(F)(F)C1` (stereo not shown) [Example 139, 3-(6-chloro-2-(3-fluoropyridin-2-yl)-3,4-dihydro-2H-chromen-7-yl)-5-cyclopropyl-7-((3,3-difluoroazetidin-1-yl)carbonyl)-3,4-dihydropyrido[4,3-d]pyrimidin-2(1H)-one], the figure is 98%; as for `Cc1cc2c(cc1N1Cc3c(cc(-n4cncn4)nc3C3CC3)NC1=O)OC(c1ncccc1F)CC2` (stereo not shown) [Example 140, 5-cyclopropyl-3-(2-(3-fluoropyridin-2-yl)-6-methyl-3,4-dihydro-2H-chromen-7-yl)-7-(1H-1,2,4-triazol-1-yl)-3,4-dihydropyrido[4,3-d]pyrimidin-2(1H)-one], 99%; as for `Cc1cc2c(cc1N1Cc3c(cc(Oc4ccnn4C)nc3C3CC3)NC1=O)OC(c1ncccc1F)CC2` (stereo not shown) [Example 141, 5-cyclopropyl-3-(2-(3-fluoropyridin-2-yl)-6-methyl-3,4-dihydro-2H-chromen-7-yl)-7-((1-methyl-1H-pyrazol-5-yl)oxy)-3,4-dihydropyrido[4,3-d]pyrimidin-2(1H)-one], 102%.
As for `Cc1cc2c(cc1N1Cc3c(Cl)cnc(C4CC4)c3NC1=O)OC(c1ncccc1F)CC2` (stereo not shown) [Example 142, 5-chloro-8-cyclopropyl-3-(2-(3-fluoropyridin-2-yl)-6-methyl-3,4-dihydro-2H-chromen-7-yl)-3,4-dihydropyrido[3,4-d]pyrimidin-2(1H)-one], the figure is 102%; as for `O=C1Nc2c(C3CC3)ncc(Cl)c2CN1c1cc2c(cc1Cl)CCC(c1ncccc1F)O2` (stereo not shown) [Example 143, 5-chloro-3-(6-chloro-2-(3-fluoropyridin-2-yl)-3,4-dihydro-2H-chromen-7-yl)-8-cyclopropyl-3,4-dihydropyrido[3,4-d]pyrimidin-2(1H)-one], 89%; as for `Cc1cc2c(cc1N1Cc3c(cc(N4CCCC4=O)nc3C3CC3)NC1=O)OC(c1ncccc1F)CC2` (stereo not shown) [Example 144, 5-cyclopropyl-3-(2-(3-fluoropyridin-2-yl)-6-methyl-3,4-dihydro-2H-chromen-7-yl)-7-(2-oxopyrrolidin-1-yl)-3,4-dihydropyrido[4,3-d]pyrimidin-2(1H)-one], 92%.
To `O=C(c1cc2c(c(C3CC3)n1)CN(c1cc3c(cc1Cl)CCC(c1ncccc1F)O3)C(=O)N2)N1CC(F)C1` (stereo not shown) [Example 145, 3-(6-chloro-2-(3-fluoropyridin-2-yl)-3,4-dihydro-2H-chromen-7-yl)-5-cyclopropyl-7-((3-fluoroazetidin-1-yl)carbonyl)-3,4-dihydropyrido[4,3-d]pyrimidin-2(1H)-one] belongs 104%; to `COC1CN(C(=O)c2cc3c(c(C4CC4)n2)CN(c2cc4c(cc2Cl)CCC(c2ncccc2F)O4)C(=O)N3)C1` (stereo not shown) [Example 146, 3-(6-chloro-2-(3-fluoropyridin-2-yl)-3,4-dihydro-2H-chromen-7-yl)-5-cyclopropyl-7-((3-methoxyazetidin-1-yl)carbonyl)-3,4-dihydropyrido[4,3-d]pyrimidin-2(1H)-one], 97%.
As to `O=C(NCC(F)F)c1cc2c(c(C3CC3)n1)CN(c1cc3c(cc1Cl)CCC(c1ncccc1F)O3)C(=O)N2` (stereo not shown) [Example 147, 3-(6-chloro-2-(3-fluoropyridin-2-yl)-3,4-dihydro-2H-chromen-7-yl)-5-cyclopropyl-N-(2,2-difluoroethyl)-2-oxo-1,2,3,4-tetrahydropyrido[4,3-d]pyrimidine-7-carboxamide], the “inhibitory rate (%)” value amounted to 104%.
As for `Cc1cc2c(cc1N1Cc3c(Cl)cnc(-c4cnn(C)c4)c3NC1=O)OC(c1ncccc1F)CC2` (stereo not shown) [Example 148, 5-chloro-3-(2-(3-fluoropyridin-2-yl)-6-methyl-3,4-dihydro-2H-chromen-7-yl)-8-(1-methyl-1H-pyrazol-4-yl)-3,4-dihydropyrido[3,4-d]pyrimidin-2(1H)-one], the figure is 97%; as for `O=C(NCC(F)(F)F)c1cc2c(c(C3CC3)n1)CN(c1cc3c(cc1Cl)CCC(c1ncccc1F)O3)C(=O)N2` (stereo not shown) [Example 149, 3-(6-chloro-2-(3-fluoropyridin-2-yl)-3,4-dihydro-2H-chromen-7-yl)-5-cyclopropyl-2-oxo-N-(2,2,2-trifluoroethyl)-1,2,3,4-tetrahydropyrido[4,3-d]pyrimidine-7-carboxamide], 107%; as for `CN(C)C(=O)c1cc2c(c(C3CC3)n1)CN(c1cc3c(cc1Cl)CCC(c1ncccc1F)O3)C(=O)N2` (stereo not shown) [Example 150, 3-(6-chloro-2-(3-fluoropyridin-2-yl)-3,4-dihydro-2H-chromen-7-yl)-5-cyclopropyl-N,N-dimethyl-2-oxo-1,2,3,4-tetrahydropyrido[4,3-d]pyrimidine-7-carboxamide], 98%.
To `Cc1cc2c(cc1N1Cc3c(cc(-c4c(C)noc4C)nc3C3CC3)NC1=O)OC(c1ncccc1F)CC2` (stereo not shown) [Example 151, 5-cyclopropyl-7-(3,5-dimethyl-1,2-oxazol-4-yl)-3-(2-(3-fluoropyridin-2-yl)-6-methyl-3,4-dihydro-2H-chromen-7-yl)-3,4-dihydropyrido[4,3-d]pyrimidin-2(1H)-one] belongs 90%; to `O=C1Nc2cncc(Cl)c2CN1c1cc2c(cc1Cl)CCC(c1ncccc1F)O2` (stereo not shown) [Example 152, 5-chloro-3-(6-chloro-2-(3-fluoropyridin-2-yl)-3,4-dihydro-2H-chromen-7-yl)-3,4-dihydropyrido[3,4-d]pyrimidin-2(1H)-one], 103%; to `O=C1Nc2c(N3CCCC3)ncc(Cl)c2CN1c1cc2c(cc1Cl)CCC(c1ncccc1F)O2` (stereo not shown) [Example 153, 5-chloro-3-(6-chloro-2-(3-fluoropyridin-2-yl)-3,4-dihydro-2H-chromen-7-yl)-8-(pyrrolidin-1-yl)-3,4-dihydropyrido[3,4-d]pyrimidin-2(1H)-one], 104%.
As for `Cc1cc2c(cc1N1Cc3c(cc(-n4cc(C(F)(F)F)cn4)nc3C3CC3)NC1=O)OC(c1ncccc1F)CC2` (stereo not shown) [Example 154, 5-cyclopropyl-3-(2-(3-fluoropyridin-2-yl)-6-methyl-3,4-dihydro-2H-chromen-7-yl)-7-(4-(trifluoromethyl)-1H-pyrazol-1-yl)-3,4-dihydropyrido[4,3-d]pyrimidin-2(1H)-one], the figure is 100%; as for `O=C1Nc2c(-c3ccoc3)ncc(Cl)c2CN1c1cc2c(cc1Cl)CCC(c1ncccc1F)O2` (stereo not shown) [Example 155, 5-chloro-3-(6-chloro-2-(3-fluoropyridin-2-yl)-3,4-dihydro-2H-chromen-7-yl)-8-(3-furyl)-3,4-dihydropyrido[3,4-d]pyrimidin-2(1H)-one], 101%.
As to `COc1ncc(Cl)c2c1NC(=O)N(c1cc3c(cc1C)CCC(c1ncccc1F)O3)C2` (stereo not shown) [Example 156, 5-chloro-3-(2-(3-fluoropyridin-2-yl)-6-methyl-3,4-dihydro-2H-chromen-7-yl)-8-methoxy-3,4-dihydropyrido[3,4-d]pyrimidin-2(1H)-one], the “inhibitory rate (%)” value is 95%.
With `N#Cc1ncc(Cl)c2c1NC(=O)N(c1cc3c(cc1Cl)CCC(c1ncccc1F)O3)C2` (stereo not shown) [Example 157, 5-chloro-3-(6-chloro-2-(3-fluoropyridin-2-yl)-3,4-dihydro-2H-chromen-7-yl)-2-oxo-1,2,3,4-tetrahydropyrido[3,4-d]pyrimidine-8-carbonitrile], the “inhibitory rate (%)” value is 104%.
